Data published in article PMC4382154, “Screening of the Pan-African Natural Product Library Identifies Ixoratannin A-2 and Boldine as Novel HIV-1 Inhibitors” (PLoS ONE, 2015).
Like-named read-outs stand apart in the source and are kept apart here.

Columns and labels:
HIV-1INT = HIV-1INT replication in CEM-GXR cells; type: cell-based; details: for EC50: Human immunodeficiency virus 1, CEM-GXR, 96 h, read-out: EC50 HIV-1INT
Procedure: (§1) HIV-1Δvpu was constructed by digesting plasmid p210-13 3’ Δ-vpu with EcoRI and NheI enzymes. The resulting DNA fragment was then ligated into wild-type pNL4-3 plasmid digested with the same enzymes. HIV-1Δvpu and HIV-1NL4-3 viral stocks were prepared by transfection of HEK-293T cells, as previously described. Patient plasma-HIV-1 RNA sequences were analyzed for resistance mutations using the HIV Drug Resistance Database Genotype Resistance Interpretation Algorithm (hivdb.stanford.edu). Recombinant HIV-1NL4-3 expressing patient-derived HIV-1 sequences harboring resistance mutations to protease and reverse transcriptase inhibitors (HIV-1PR+RT), reverse transcriptase inhibitors (HIV-1RT), and integrase inhibitors (HIV-1INT) were generated by homologous recombination following co-transfection as reported.
(§2) CEM-GXR cells are an immortalized CD4+ T-lymphocyte line engineered that naturally express the HIV-1 coreceptor CXCR4 and have been further engineered to express the HIV-1 co-receptor CCR5 and a Tat-driven LTR-GFP expression cassette. As such, intracellular GFP expression indicates HIV-1 infection. Cultures of 10^5 CEM-GXR cells were seeded into 96-well plates with RPMI-1640 media (Sigma) supplemented with penicillin/streptomycin plus 20% fetal calf serum (R20+), infected with HIV-1 at a multiplicity of infection of 0.03 (to achieve 3% infected cells on Day 2), and incubated at 37°C and 5% CO2. 24 hours later, cells were pelleted at 750 g and resuspended in R20+ containing compound or 0.1% DMSO. […] Cells were then incubated at 37°C and 5% CO2 for an additional 72 h. 5,000 cells from each culture were measured for cell toxicity and GFP expression by flow cytometry. Flow cytometry data were analyzed using FlowJo v. 8.8.7 software (FlowJo LLC, Ashland, OR). […] Background GFP expression in uninfected cultures was set at 0.05% GFP-positive cells. For each experiment, all data points were obtained in triplicate. All data are reported as the mean ± s.e.m. from at least 3 independent experiments performed with different virus stocks and/or performed on different days. However, all experiments that compare HIV-1NL4-3 and mutant HIV-1 were performed in parallel. EC50 and CC50 values for each compound were calculated from at least four concentrations. Statistical analyses were performed using Student’s unpaired t test, with a p value < 0.05 plus a Bonferroni correction to adjust for multiple comparisons considered significant.
(§3) To investigate the mechanisms by which ixoratannin A-2 and boldine may block HIV-1 replication, we used a previously-reported HIV-1NL4-3 strain lacking the Vpu coding region (HIV-1Δvpu). We also constructed recombinant HIV-1NL4-3 strains harboring protease, reverse transcriptase, and/or integrase sequences of HIV-1 strains from patients who had developed resistance to the protease inhibitor Indinavir (IND), the non-nucleoside reverse transcriptase inhibitor Efavirenz (EFV), and/or the integrase inhibitor Raltegravir (RAL) (denoted HIV-1PR+RT, HIV-1RT, and HIV-1INT, respectively). Re-sequencing of the recombinant viruses confirmed the presence of multiple mutations known to confer resistance to IND, EFV, and/or RAL (Table 2).

hERG potassium channel = tested on: hERG potassium channel; design: method as in PMID 24963621; details: two electrode voltage clamp, Xenopus oocytes; read-out: IC50 hERG potassium channel currents; cited from earlier work
HIV-1PR+RT = HIV-1PR+RT replication in CEM-GXR cells; type: cell-based; details: for HIV-1PR+RT replication fold higher than HIV-1NL4-3: 75 μM; for EC50: Human immunodeficiency virus 1, CEM-GXR, 96 h, read-out: EC50 HIV-1PR+RT
Procedure: as §1, §2, §3

HIV-1NL4-3 [1] = test: HIV-1 replication assay in PBMCs (p24Gag ELISA); type: cell-based; details: Day 12
Procedure: PBMCs from HIV-1 negative subjects, purchased commercially (StemCell Technologies, Vancouver, Canada), were maintained in RPMI-1640 media (Sigma) supplemented with penicillin/streptomycin plus 10% fetal calf serum (R10+). 72 h prior to viral infection, PBMCs were stimulated by addition of 5 μg/mL phytohaemaglutanin (PHA) (Day 0) and maintained in R10+ medium supplemented with 100 units/mL human IL-2. At Day 3 following cellular activation, 3x10^5 cells were infected with HIV-1NL4-3 at a multiplicity of infection of 0.003 (0.3% infected cells) and incubated at 37°C for 6h, followed by wash and re-suspension in fresh R10+ medium supplemented with 100 units/mL human IL-2 and with or without compounds at defined concentrations. Culture supernatants were collected and replaced with fresh medium supplemented with human IL-2 every 3 days (i.e., Days 6, 9, and 12) with or without fresh compounds. Viral replication at day 12 was monitored by measuring cell culture supernatant levels of p24^Gag by ELISA (XpressBio, Frederick, MD) following manufacturer’s instructions.

HIV-1NL4-3 [2] = test: microbe, parasite or virus in culture; type: cell-based; details: for percent GFP-positive (HIV-infected) cells: 100 μM; for selectivity index (SI): CC50 over EC50 in CEM-GXR cells; for EC50: read-out: HIV-1NL4-3 inhibition (EC50)
Procedure: as §2
To assess the effects of these eight compounds on cell viability and HIV-1 replication, we infected a GFP-reporter CEM CD4+ T cell line (CEM-GXR) with the NL4-3 strain of HIV-1 (HIV-1NL4-3). Briefly, cells were infected with HIV-1NL4-3 at a multiplicity of infection of 0.03 (Day 0), followed by removal of HIV-1 and addition of compound (or 0.1% DMSO vehicle control) 24 hours later (Day 1) and incubation for an additional 72 hours to allow HIV-1 spread (Days 2–4). On Days 2 and/or 4, the percent HIV-1 infected (i.e., GFP-expressing) cells was measured by flow cytometry. Cell viability was assessed by measuring the percentage of cells displaying normal forward- and side-scatter parameters in drug-treated, HIV-1 infected cultures compared to 0.1% DMSO-treated, HIV-1 infected control cultures. […] HIV-1NL4-3 replication was unaffected by the presence of 0.1% DMSO vehicle control (Fig. 2B).

[3] = concentrations up to 75 or 100 μM, CEM-GXR cells

COc1cc2c(cc1O)C[C@H]1c3c(cc(O)c(OC)c3-2)CCN1C [boldine]
EC50 (HIV-1INT): > 100 µM | inhibition of HIV-1INT (HIV-1INT; [3]): < 50% | IC50 (hERG potassium channel): 19.3 µM | HIV-1PR+RT replication fold greater vs. HIV-1NL4-3 (HIV-1PR+RT; 25 μM, CEM-GXR cells): 1.4 fold | HIV-1PR+RT replication fold higher than HIV-1NL4-3 (HIV-1PR+RT; CEM-GXR cells): 1.5 fold | EC50 (HIV-1PR+RT): > 100 µM | HIV-1PR+RT replication fold increased vs. HIV-1NL4-3 (HIV-1PR+RT; concentration not stated): 1.4 fold | inhibition of HIV-1PR+RT (HIV-1PR+RT; [3]): < 50% | reduced HIV-1 replication in PBMCs (p24Gag) (HIV-1NL4-3 [1]; 100 μM): 47.0% | percent GFP-positive (HIV-infected) cells (HIV-1NL4-3 [2]; Day 2, HIV-1NL4-3-infected CEM-GXR cells (infected control 3.14)): 2.17% | percent GFP-positive (HIV-infected) cells (HIV-1NL4-3 [2]; Day 4, HIV-1NL4-3-infected CEM-GXR cells (infected control 10.80)): 4.09% | selectivity index (SI) (HIV-1NL4-3 [2]): 4.1 | EC50 (HIV-1NL4-3 [2]; Human immunodeficiency virus 1, CEM-GXR, 96 h): 50.2 µM

Oc1cc(O)c2c(c1)OC1(c3ccc(O)c(O)c3)Oc3c4c(c5c(c3C2C1O)OC1(c2ccc(O)c(O)c2)Oc2cc(O)cc(O)c2C5C1O)OC(c1ccc(O)c(O)c1)C(O)C4 (centres unmarked) [ixoratannin A-2]
HIV-1INT replication fold higher than HIV-1NL4-3 (HIV-1INT; 75 μM, CEM-GXR cells): 1.5 fold | EC50 (HIV-1INT): 38.4 µM | HIV-1PR+RT replication fold higher than HIV-1NL4-3 (HIV-1PR+RT; CEM-GXR cells): 1.5 fold | EC50 (HIV-1PR+RT): 36.4 µM | reduced HIV-1 replication in PBMCs (p24Gag) (HIV-1NL4-3 [1]; 25 μM): 39.0% | selectivity index (SI) (HIV-1NL4-3 [2]): 1.7 | EC50 (HIV-1NL4-3 [2]; Human immunodeficiency virus 1, 96 h, CEM-GXR cells, Day 4): 34.4 µM
